# Biological target: Bcl-2 protein (Homo sapiens (Human), UniProt P10415)
# Test: Bcl-2 binding TR-FRET (Time-Resolved Fluorescence-Resonance-Energy-Transfer) assay
# Conditions: inhibition constant for binding to Bcl-2 protein
# Description: The smaller the Ki value, the greater is the binding affinity.
# Bcl-2 protein, sequence (P10415 whole entry): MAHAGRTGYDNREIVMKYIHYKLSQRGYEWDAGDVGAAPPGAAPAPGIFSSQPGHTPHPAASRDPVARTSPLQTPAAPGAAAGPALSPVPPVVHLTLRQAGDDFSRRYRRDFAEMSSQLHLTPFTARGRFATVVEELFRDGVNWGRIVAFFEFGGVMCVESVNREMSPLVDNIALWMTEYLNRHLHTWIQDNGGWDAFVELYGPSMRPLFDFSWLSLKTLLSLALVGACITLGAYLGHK
row,SMILES,Ki
1,"C[C@]1(O)CC[C@@H](COc2ncc(S(=O)(=O)NC(=O)c3ccc(N4CCN(CC5=C(c6ccc(Cl)cc6)CC6(CC5)CC6)CC4)cc3Oc3cnc4[nH]ccc4c3)cc2Cl)CC1 [Compound 341, N-({5-chloro-6-[(trans-4-hydroxy-4-methylcyclohexyl)methoxy]pyridin-3-yl}sulfonyl)-4-(4-{[5-(4-chlorophenyl)spiro[2.5]oct-5-en-6-yl]methyl}piperazin-1-yl)-2-(1H-pyrrolo[2,3-b]pyridin-5-yloxy)benzamide]",< 0.01 nM
2,"CC1(C)CCC(CN2CCN(c3ccc(C(=O)NS(=O)(=O)c4cnc(OCC5CCc6nccn6C5)c(Cl)c4)c(Oc4cnc5[nH]ccc5c4)c3)CC2)=C(c2ccc(Cl)cc2)C1 (stereo not shown) [Compound 342, 4-(4-{[2-(4-chlorophenyl)-4,4-dimethylcyclohex-1-en-1-yl]methyl}piperazin-1-yl)-N-{[5-chloro-6-(5,6,7,8-tetrahydroimidazo[1,2-a]pyridin-6-ylmethoxy)pyridin-3-yl]sulfonyl}-2-(1H-pyrrolo[2,3-b]pyridin-5-yloxy)benzamide]",< 0.01 nM
3,"O=C(NS(=O)(=O)c1cnc(OCC2(F)CCN(C3COC3)CC2)c(Cl)c1)c1ccc(N2CCN(CC3=C(c4ccc(Cl)cc4)CC4(CC3)CC4)CC2)cc1Oc1cnc2[nH]ccc2c1 [Compound 345, N-[(5-chloro-6-{[4-fluoro-1-(oxetan-3-yl)piperidin-4-yl]methoxy}pyridin-3-yl)sulfonyl]-4-(4-{[5-(4-chlorophenyl)spiro[2.5]oct-5-en-6-yl]methyl}piperazin-1-yl)-2-(1H-pyrrolo[2,3-b]pyridin-5-yloxy)benzamide]",< 0.01 nM
4,"CC1(C)CCC(CN2CCN(c3ccc(C(=O)NS(=O)(=O)c4cnc(OC[C@]5(F)CC[C@@H](O)CC5)c(Cl)c4)c(Oc4cnc5[nH]ccc5c4)c3)CC2)=C(c2ccc(Cl)cc2)C1 [Compound 350, N-({5-chloro-6-[(cis-1-fluoro-4-hydroxycyclohexyl)methoxy]pyridin-3-yl}sulfonyl)-4-(4-{[2-(4-chlorophenyl)-4,4-dimethylcyclohex-1-en-1-yl]methyl}piperazin-1-yl)-2-(1H-pyrrolo[2,3-b]pyridin-5-yloxy)benzamide]",< 0.01 nM
5,"CC1(C)CCC(CN2CCN(c3ccc(C(=O)NS(=O)(=O)c4ccc(OCC5CCC6(CC5)COC6)c([N+](=O)[O-])c4)c(Oc4cnc5[nH]ccc5c4)c3)CC2)=C(c2ccc(Cl)cc2)C1 [Compound 351, 4-(4-{[2-(4-chlorophenyl)-4,4-dimethylcyclohex-1-en-1-yl]methyl}piperazin-1-yl)-N-{[3-nitro-4-(2-oxaspiro[3.5]non-7-ylmethoxy)phenyl]sulfonyl}-2-(1H-pyrrolo[2,3-b]pyridin-5-yloxy)benzamide]",< 0.01 nM
6,"O=C(NS(=O)(=O)c1ccc(NCC2CCOCC2)c([N+](=O)[O-])c1)c1ccc(N2CCN(CC3=C(c4ccc(Cl)cc4)CCC(CF)(CF)C3)CC2)cc1Oc1cnc2[nH]ccc2c1 [Compound 353, 4-(4-{[2-(4-chlorophenyl)-5,5-bis(fluoromethyl)cyclohex-1-en-1-yl]methyl}piperazin-1-yl)-N-({3-nitro-4-[(tetrahydro-2H-pyran-4-ylmethyl)amino]phenyl}sulfonyl)-2-(1H-pyrrolo[2,3-b]pyridin-5-yloxy)benzamide]",< 0.01 nM
7,"CC1(C)CCC(CN2CCN(c3ccc(C(=O)NS(=O)(=O)c4ccc(OCC5(F)CCN(C6COC6)CC5)c(C#N)c4)c(Oc4cnc5[nH]ccc5c4)c3)CC2)=C(c2ccc(Cl)cc2)C1 [Compound 357, 4-(4-{[2-(4-chlorophenyl)-4,4-dimethylcyclohex-1-en-1-yl]methyl}piperazin-1-yl)-N-[(3-cyano-4-{[4-fluoro-1-(oxetan-3-yl)piperidin-4-yl]methoxy}phenyl)sulfonyl]-2-(1H-pyrrolo[2,3-b]pyridin-5-yloxy)benzamide]",< 0.01 nM

# Source: patent publication US10213433B2 (AbbVie Inc., priority 2010, dated 2019)
